The target in one experiment is T1, AqTNKS ART (Amphimedon queenslandica, UniProt A0AAN0IWK4).
T1 construct: catalytic ART domain, Thr968-Thr1181; MBP tag removed by TEV; E. coli BL21(DE3), codon-optimized
As to the kind of experiment: differential scanning fluorimetry (SYPRO orange). The class given is binding. To be noted: […] protein, […] compound, pH […].

The next experiment concerns the target T2, TNKS1 ART (Homo sapiens, UniProt O95271).
T2 construct: gene TNKS; catalytic ART domain; E. coli BL21(DE3)
T2 sequence (O95271 1105-1327 limits assumed): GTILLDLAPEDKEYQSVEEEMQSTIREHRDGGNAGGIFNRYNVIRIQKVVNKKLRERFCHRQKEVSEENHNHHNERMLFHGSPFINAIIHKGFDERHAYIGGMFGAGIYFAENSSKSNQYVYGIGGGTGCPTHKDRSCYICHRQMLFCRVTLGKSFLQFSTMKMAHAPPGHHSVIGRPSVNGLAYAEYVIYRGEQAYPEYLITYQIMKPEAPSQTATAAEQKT
As to the kind of experiment: differential scanning fluorimetry (SYPRO orange). The class given is binding. To be noted: […] protein, […] compound, pH […]; adenosine site. Background: Differential scanning fluorimetry follows unfolding on heating by fluorescence.

A further experiment concerns the target T3, AqTNKS SAM-ART (Amphimedon queenslandica, UniProt A0AAN0IWK4).
T3 construct: SAM and ART domains, Pro889-Thr1181; N-terminal MBP tag kept; E. coli BL21(DE3); forms multimers
As to the kind of experiment: auto-PARylation, Western blot. The class given is biochemical. To be noted: […] protein; biotin-NAD+/NAD+ ([…]), […] total; […] h, room temperature; labelled compound as tracer.

In another experiment the target is T4, TNKS1 SAM-ART (Homo sapiens, UniProt O95271).
T4 construct: gene TNKS; SAM and ART domains; N-terminal MBP tag kept; E. coli BL21(DE3)
T4 sequence (O95271 1030-1327 limits assumed): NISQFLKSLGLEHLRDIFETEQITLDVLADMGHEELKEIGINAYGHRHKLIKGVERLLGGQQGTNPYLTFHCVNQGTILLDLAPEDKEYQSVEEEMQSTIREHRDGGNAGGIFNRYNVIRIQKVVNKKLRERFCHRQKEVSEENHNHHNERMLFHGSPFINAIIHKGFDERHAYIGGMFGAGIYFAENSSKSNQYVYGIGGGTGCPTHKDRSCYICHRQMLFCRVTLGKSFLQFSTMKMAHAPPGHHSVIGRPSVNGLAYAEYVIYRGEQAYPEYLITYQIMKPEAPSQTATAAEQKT
As to the kind of experiment: auto-PARylation, Western blot. The experiment is classed as biochemical. The note with it: […] protein; biotin-NAD+/NAD+ ([…]), […] total; […] h, room temperature; labelled compound as tracer.

The target in another experiment is T5, CFP-ARC5 (AqTNKS) (Amphimedon queenslandica).
T5 chain: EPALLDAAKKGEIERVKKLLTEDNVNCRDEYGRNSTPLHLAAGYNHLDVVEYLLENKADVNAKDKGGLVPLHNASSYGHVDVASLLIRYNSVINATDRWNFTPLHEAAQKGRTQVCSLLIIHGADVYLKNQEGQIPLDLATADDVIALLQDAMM
Put plainly: FRET.

Consider seven molecules from paper PMC9688111, “An Evolutionary Perspective on the Origin, Conservation and Binding Partner Acquisition of Tankyrases” (Biomolecules, 2022).

No end group written: not given here. YFP = yellow fluorescent protein

T1 sequence (A0AAN0IWK4 entry or part of it): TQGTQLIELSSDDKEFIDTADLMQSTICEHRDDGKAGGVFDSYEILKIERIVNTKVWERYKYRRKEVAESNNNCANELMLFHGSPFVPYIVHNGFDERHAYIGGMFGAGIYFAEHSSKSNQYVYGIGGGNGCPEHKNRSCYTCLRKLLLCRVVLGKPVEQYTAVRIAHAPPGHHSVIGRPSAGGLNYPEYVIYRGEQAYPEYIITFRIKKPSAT
T3 sequence (A0AAN0IWK4 entry or part of it): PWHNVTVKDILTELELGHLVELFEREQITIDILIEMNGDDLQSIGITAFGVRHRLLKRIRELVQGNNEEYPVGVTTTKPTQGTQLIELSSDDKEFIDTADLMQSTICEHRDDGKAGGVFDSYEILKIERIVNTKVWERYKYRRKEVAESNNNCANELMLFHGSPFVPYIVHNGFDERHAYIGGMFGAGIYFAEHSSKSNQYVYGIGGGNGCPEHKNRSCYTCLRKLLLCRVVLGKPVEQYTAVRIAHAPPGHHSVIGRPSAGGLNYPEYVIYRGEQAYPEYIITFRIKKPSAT

In the case of `Cc1cc(N2C[C@@H](C)N[C@@H](C)C2)ncc1-c1ccc(-c2nc3c(ccn3C)c(=O)[nH]2)cc1` [AZ6102], the Tm shift result at AqTNKS ART (nicotinamide site, compound named in Results but not in the Methods list) was “For all inhibitors, the melting temperatures for both TNKS1 and AqTNKS were similarly increased”.

Consider `O=c1[nH]nc2c3c(cccc13)NC(CN1Cc3ccccc3C1)=N2` [E7449], for which the Tm shift entry on AqTNKS ART (nicotinamide site) was “For all inhibitors, the melting temperatures for both TNKS1 and AqTNKS were similarly increased”.

As to `CS(=O)(=O)c1ccc(-c2nnc(/C=C/c3nnc(-c4ccc(C#N)cc4)o3)n2-c2ccccc2Cl)nc1` [G007-LK], the Tm shift result on TNKS1 ART is “For all inhibitors, the melting temperatures for both TNKS1 and AqTNKS were similarly increased”; on AqTNKS ART (adenosine site), “For all inhibitors, the melting temperatures for both TNKS1 and AqTNKS were similarly increased”.

As to `NC(=O)c1ccc[n+]([C@@H]2O[C@H](COP(=O)(O)OP(=O)(O)OC[C@H]3O[C@@H](n4cnc5c(N)ncnc54)[C@H](O)[C@@H]3O)[C@@H](O)[C@H]2O)c1` [NAD^+], the “auto-PARylation, Western blot” value on AqTNKS SAM-ART is “PARylation of the proteins was clearly detected for the SAM-ART constructs of AqTNKS and TNKS1”; on TNKS1 SAM-ART it was “PARylation of the proteins was clearly detected for the SAM-ART constructs of AqTNKS and TNKS1”.

Turning to `COc1ccc(C(=O)C2CCN(CC(=O)N(Cc3nc4c(c(=O)[nH]3)COCC4)CC3CC3)CC2)cc1` [NVP-TNKS656], the Tm shift result at AqTNKS ART (dual site) was “For all inhibitors, the melting temperatures for both TNKS1 and AqTNKS were similarly increased”.

For the molecule `O=c1[nH]c(-c2ccc(C(F)(F)F)cc2)nc2c1CSCC2` [XAV939], the Tm shift result on AqTNKS ART (nicotinamide site) is “For all inhibitors, the melting temperatures for both TNKS1 and AqTNKS were similarly increased”.

The Kd is the free concentration of one partner at which half of the binding sites on the other are occupied at equilibrium, for simple one-to-one binding. In the experiment with CFP-ARC5 (AqTNKS), {YFP}-REAGDGEE [YFP-REAGDGEE] registered a Kd of 98.5 nM.
